Experimental data from patent US8513233B2, “Pyrimidinyl-propionic acid derivatives and their use as PPAR agonists” (Shanghai Institute of Materia Medica, CAS, priority 2007, dated 2013).
pEC50, pIC50: −log10 of the molar value.

Key:
Type in all cases: cell-based
PPAR-γ = molecular target: T1, PPAR-γ (Homo sapiens, UniProt P37231); assay: Transient transfection and transcription assay (luciferase reporter, U2OS cells); conditions: 24 h treatment
T1 construct: expressed in transfected cells; host or cells: U2OS cells, transiently transfected with pcDNA3.1 expression vectors (FuGene6)
T1 sequence (P37231 1-505): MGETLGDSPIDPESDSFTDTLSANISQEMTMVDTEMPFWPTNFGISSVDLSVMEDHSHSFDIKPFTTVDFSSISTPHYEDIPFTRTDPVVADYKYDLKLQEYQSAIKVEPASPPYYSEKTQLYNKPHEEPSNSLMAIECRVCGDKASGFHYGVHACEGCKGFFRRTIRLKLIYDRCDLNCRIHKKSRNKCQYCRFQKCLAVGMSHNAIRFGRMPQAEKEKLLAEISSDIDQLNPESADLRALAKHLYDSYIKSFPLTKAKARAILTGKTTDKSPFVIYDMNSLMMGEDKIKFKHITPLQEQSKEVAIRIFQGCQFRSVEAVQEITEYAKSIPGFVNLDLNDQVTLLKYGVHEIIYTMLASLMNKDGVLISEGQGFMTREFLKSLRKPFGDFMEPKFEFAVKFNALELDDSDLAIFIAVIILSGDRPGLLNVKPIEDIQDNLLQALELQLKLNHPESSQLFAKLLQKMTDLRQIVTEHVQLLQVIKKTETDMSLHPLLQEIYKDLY
T1 sequence (P19793 1-462 partner): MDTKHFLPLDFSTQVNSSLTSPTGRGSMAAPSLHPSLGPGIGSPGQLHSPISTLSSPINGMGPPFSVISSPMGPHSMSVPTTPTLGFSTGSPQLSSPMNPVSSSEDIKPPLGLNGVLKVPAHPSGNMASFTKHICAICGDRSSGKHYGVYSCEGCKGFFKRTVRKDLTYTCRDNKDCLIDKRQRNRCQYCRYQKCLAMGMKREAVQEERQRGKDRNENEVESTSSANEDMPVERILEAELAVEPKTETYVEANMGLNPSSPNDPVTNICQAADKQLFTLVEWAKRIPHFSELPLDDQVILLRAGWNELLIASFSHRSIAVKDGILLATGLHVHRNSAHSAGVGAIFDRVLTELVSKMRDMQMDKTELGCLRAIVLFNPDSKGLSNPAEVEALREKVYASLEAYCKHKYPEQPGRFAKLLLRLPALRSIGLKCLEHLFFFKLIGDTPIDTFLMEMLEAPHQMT
Experimental: cDNAs for Human RXR, PPAR were obtained by RTPCR from the human liver or adipose tissues. Amplified cDNAs were cloned into pcDNA3.1 expression vector and the inserts were confirmed by sequencing. U2OS cells were cultured in McCoy's 5A with 10% heat-inactivated fetal bovine serum in a humidified 5% CO2 atmosphere at 37° C. Cells were seeded in 96-well plates the day before transfection to give a confluence of 50-80% at transfection. A total of 60 ng of DNA containing 10 ng of hRXR, 10 ng of pCMV Gal, 10 ng of nuclear receptor expression vectors and 30 ng of the corresponding reporters were cotransfected per well using FuGene6 transfection reagent according to the manufacturer's instructions. […] The final concentration of DMSO in culture medium was 0.1%. […] Luciferase activity was monitored using the luciferase assay kit according to the manufacturers instructions. Light emission was read in a Labsystems Ascent Fluoroskan reader. To measure galactosidase activity to normalize the luciferase data, 50 IL of supernatant from each transfection lysate was transferred to a new microplate. Galactosidase assays were performed in the microwell plates using a kit from Promega and read in a microplate reader. Compounds were tested in five concentrations ranging from 0.01 to 10 μM. […] The results were expressed as means (SD).

T24 = assay: Growth inhibition, modified MTT assay, T24; conditions: Homo sapiens, T-24, mean of 3 independent tests
Experimental: (§1) The growth inhibition was evaluated by the modified MTT assay. Briefly, the cells were seeded at 1×10^4 cells/well in 96-well plates (Falcon, Calif., USA), and incubated for 24 h in […] culture media with 10% FCS. The media were then replaced by serum-free medium. After 24 h, the media were placed in triplicate with grade concentrations of compounds. As controls, the cells were cultivated in DMEM/F12 only. The cells were then treated by MTT (Sigma, USA) assay, […] (5 g/L) for 4 h. After the removal of the supernatant, the purple-blue sediment was dissolved in 100 μL/well DMSO, and the optical densities were read on the multi-well scanning spectrophotometer (Labsystems Dragon, Finland) at 492 nm (A492). The growth inhibition rate (GIR) of the treated cells was calculated using Equation: GIR(%)={1−[A490/A490(control)]}×100% The results were also converted to IC50 (the compound concentration required for 50% growth inhibition of tumor cells), which were calculated by using the sigmoidal fitting model by the Origin 7.0 software (OriginLab, Northampton, Mass., USA). The mean IC50 was determined from the results of 3 independent tests.

HepG2 = assay: Growth inhibition, modified MTT assay, HepG2; conditions: Homo sapiens, mean of 3 independent tests
Experimental: as §1

MCF-7 = assay: Growth inhibition, modified MTT assay, MCF-7; conditions: Homo sapiens, MCF7; MCF-7, MTT, mean of 3 independent tests
Experimental: as §1

SPC-A1 = assay: Growth inhibition, modified MTT assay, SPC-A1; conditions: SPCA1, mean of 3 independent tests
Experimental: as §1

C[C@@](Cc1ccc(Oc2cc(N3CCN(Cc4ccccc4)CC3)nc(N)n2)cc1)(Oc1ccccc1)C(=O)O (stereo in doubt) [Compound 4, R-3-{4-[2-Amino-6-(4-benzyl-piperazin-1-yl)-pyrimidin-4-yloxy]-phenyl}-2-methyl-2-phenoxy-propionic acid]
pEC50 (PPAR-γ): 5.24

C[C@@](Cc1ccc(Oc2cc(N3CCN(Cc4ccccc4)CC3)nc(N)n2)cc1)(Oc1ccccc1)C(=O)O [Compound 3, S-3-{4-[2-Amino-6-(4-benzyl-piperazin-1-yl)-pyrimidin-4-yloxy]-phenyl}-2-methyl-2-phenoxy-propionic acid]
pEC50 (PPAR-γ): 5.48

CC(Cc1ccc(Oc2cc(N3CCN(Cc4cccc5ccccc45)CC3)nc(N)n2)cc1)(Oc1ccccc1)C(=O)O (stereo not drawn) [Compound 6, 3-{4-[2-Amino-6-(4-(naphthalen-1-ylmethyl)-piperazin-1-yl)-pyrimidin-4-yloxy]-phenyl}-2-methyl-2-phenoxy-propionic acid]
pIC50 (T24): 4.44 | pIC50 (HepG2): 4.61 | pIC50 (MCF-7): 4.37 | pIC50 (SPC-A1): 4.30 | pEC50 (PPAR-γ): 5.47

Cc1cccc(CN2CCN(c3cc(Oc4ccc(CC(C)(Oc5ccccc5)C(=O)O)cc4)nc(N)n3)CC2)c1 (stereo not drawn) [Compound 9, 3-{4-{2-Amino-6-[4-(3-methyl-benzyl)-piperazin-1-yl]-pyrimidin-4-yloxy}-phenyl}-2-methyl-2-phenoxy-propionic acid]
pIC50 (T24): < 4.30 | pIC50 (HepG2): < 4.30 | pIC50 (MCF-7): 4.42 | pIC50 (SPC-A1): 4.31 | pEC50 (PPAR-γ): 5.38

CC(Cc1ccc(Oc2cc(N3CCN(Cc4cccc(C(F)(F)F)c4)CC3)nc(N)n2)cc1)(Oc1ccccc1)C(=O)O (stereo not drawn) [Compound 10, 3-{4-{2-Amino-6-[4-(3-trifluoromethyl-benzyl)-piperazin-1-yl]-pyrimidin-4-yloxy}-phenyl}-2-methyl-2-phenoxy-propionic acid]
pIC50 (T24): 4.54 | pIC50 (HepG2): 4.42 | pIC50 (MCF-7): 4.82 | pIC50 (SPC-A1): 4.60 | pEC50 (PPAR-γ): 5.37

CC(Cc1ccc(Oc2cc(N3CCN(Cc4ccc(C(C)(C)C)cc4)CC3)nc(N)n2)cc1)(Oc1ccccc1)C(=O)O (stereo not drawn) [Compound 14, 3-{4-{2-Amino-6-[4-(4-tert-butyl-benzyl)-piperazin-1-yl]-pyrimidin-4-yloxy}-phenyl}-2-methyl-2-phenoxy-propionic acid]
pIC50 (T24): 4.90 | pIC50 (HepG2): 4.58 | pIC50 (MCF-7): 5.10 | pIC50 (SPC-A1): 5.07 | pEC50 (PPAR-γ): 5.22

CC(Cc1ccc(Oc2cc(N3CCN(c4ncccn4)CC3)nc(N)n2)cc1)(Oc1ccccc1)C(=O)O (stereo not drawn) [Compound 20, 3-{4-[2-Amino-6-(4-pyrimidin-2-yl-piperazin-1-yl)-pyrimidin-4-yloxy]-phenyl}-2-methyl-2-phenoxy-propionic acid]
pIC50 (T24): 4.70 | pIC50 (HepG2): 4.49 | pIC50 (MCF-7): 4.45 | pIC50 (SPC-A1): 4.54 | pEC50 (PPAR-γ): 5.23

CC(Cc1ccc(Oc2cc(N3CCN(C(=O)c4ccccc4)CC3)nc(N)n2)cc1)(Oc1ccccc1)C(=O)O (stereo not drawn) [Compound 21, 3-{4-[2-Amino-6-(4-benzoyl-piperazin-1-yl)-pyrimidin-4-yloxy]-phenyl}-2-methyl-2-phenoxy-propionic acid]
pIC50 (T24): < 4.30 | pIC50 (HepG2): < 4.30 | pIC50 (MCF-7): < 4.30 | pIC50 (SPC-A1): < 4.30

CC(Cc1ccc(Oc2cc(N3CCN(c4ccccc4)CC3)nc(N)n2)cc1)(Oc1ccccc1)C(=O)O (stereo not drawn) [Compound 22, 3-{4-[2-Amino-6-(4-phenyl-piperazin-1-yl)-pyrimidin-4-yloxy]-phenyl}-2-methyl-2-phenoxy-propionic acid]
pIC50 (T24): 4.65 | pIC50 (HepG2): 4.53 | pIC50 (SPC-A1): 4.49 | pEC50 (PPAR-γ): 5.33

CC(Cc1ccc(Oc2cc(N3CCN(c4cccc(Cl)c4)CC3)nc(N)n2)cc1)(Oc1ccccc1)C(=O)O (stereo not drawn) [Compound 23, 3-{4-{2-Amino-6-[4-(3-chloro-phenyl)-piperazin-1-yl]-pyrimidin-4-yloxy}-phenyl}-2-methyl-2-phenoxy-propionic acid]
pIC50 (T24): 4.82 | pIC50 (HepG2): 4.70 | pIC50 (MCF-7): 4.93 | pIC50 (SPC-A1): 4.92 | pEC50 (PPAR-γ): 5.36

CCCc1ccc(C(=O)N2CCN(c3cc(Oc4ccc(CC(C)(Oc5ccccc5)C(=O)O)cc4)nc(N)n3)CC2)cc1 (stereo not drawn) [Compound 24, 3-{4-{2-Amino-6-[4-(4-propyl-benzoyl)-piperazin-1-yl]-pyrimidin-4-yloxy}-phenyl}-2-methyl-2-phenoxy-propionic acid]
pIC50 (T24): 4.40 | pIC50 (HepG2): < 4.30 | pIC50 (MCF-7): 4.42 | pIC50 (SPC-A1): 4.36

COc1ccccc1C(=O)N1CCN(c2cc(Oc3ccc(CC(C)(Oc4ccccc4)C(=O)O)cc3)nc(N)n2)CC1 (stereo not drawn) [Compound 25, 3-{4-{2-Amino-6-[4-(2-methoxy-benzoyl)-piperazin-1-yl]-pyrimidin-4-yloxy}-phenyl}-2-methyl-2-phenoxy-propionic acid]
pIC50 (T24): < 4.30 | pIC50 (HepG2): < 4.30 | pIC50 (MCF-7): < 4.30 | pIC50 (SPC-A1): < 4.30

CC(Cc1ccc(Oc2cc(N3CCN(Cc4cccc(C#N)c4)CC3)nc(N)n2)cc1)(Oc1ccccc1)C(=O)O (stereo not drawn) [Compound 26, 3-{4-{2-Amino-6-[4-(3-cyano-benzyl)-piperazin-1-yl]-pyrimidin-4-yloxy}-phenyl}-2-methyl-2-phe noxy-propionic acid]
pIC50 (T24): 4.41 | pIC50 (HepG2): 4.45 | pIC50 (MCF-7): 4.63 | pIC50 (SPC-A1): 4.42

CC(Cc1ccc(Oc2cc(N3CCN(CC4CCCCC4)CC3)nc(N)n2)cc1)(Oc1ccccc1)C(=O)O (stereo not drawn) [Compound 27, 3-{4-[2-Amino-6-(4-cyclohexylmethyl-piperazin-1-yl)-pyrimidin-4-yloxy]-phenyl}-2-methyl-2-phenoxy-propionic acid]
pIC50 (T24): < 4.30 | pIC50 (HepG2): 4.35 | pIC50 (MCF-7): < 4.30 | pIC50 (SPC-A1): < 4.30 | pEC50 (PPAR-γ): 5.27

CC(Cc1ccc(Oc2cc(N3CCN(Cc4ccccc4)CC3)nc(N)n2)cc1)(Oc1ccc(-c2ccccc2)cc1)C(=O)O (stereo not drawn) [Compound 29, 3-{4-[2-Amino-6-(4-benzyl-piperazin-1-yl)-pyrimidin-4-yloxy]-phenyl}-2-(biphenyl-4-yloxy)-2-methyl-propionic acid]
pIC50 (T24): 4.40 | pIC50 (HepG2): < 4.30 | pIC50 (MCF-7): < 4.30 | pIC50 (SPC-A1): 4.47 | pEC50 (PPAR-γ): 5.59

CC(Cc1ccc(Oc2cc(N3CCN(Cc4ccccn4)CC3)nc(N)n2)cc1)(Oc1ccccc1)C(=O)O (stereo not drawn) [Compound 36, 3-{4-[2-Amino-6-(4-pyridin-2-ylmethyl-piperazin-1-yl)-pyrimidin-4-yloxy]-phenyl}-2-methyl-2-phenoxy-propionic acid]
pIC50 (T24): < 4.30 | pIC50 (HepG2): < 4.30 | pIC50 (MCF-7): < 4.30 | pIC50 (SPC-A1): < 4.30
